# In US10023562B2, “Heteroaryl substituted pyridyl compounds useful as kinase modulators” (BRISTOL-MYERS SQUIBB COMPANY, priority 2012, dated 2018):
# System: TLR2 induced IL-6 in peripheral blood mononuclear cells (PBMCs)
# Test: PBMC TLR2 Induced IL-6 Assay
# Assay type: cell-based
# Details: Homo sapiens, PBMC, 5 h, 10 μg/ml lipoteichoic acid for 5 hours, IL-6 by ELISA; for IC50: values without asterisk, read-out: Cell IC50; for EC50: values marked * are EC50, read-out: Cell EC50 (values marked *)
# Method: PBMC TLR2 Induced IL-6 Assay Peripheral blood mononuclear cells (PBMCs) were isolated from human blood containing the anti-coagulant EDTA (2.5 mM) by centrifugation over a FICOLL® gradient. […] At the end of the culture, plates were centrifuged at 1800 rpm for 10 minutes to pellet the cells. Supernatants were harvested and analyzed for IL-6 levels by ELISA (BD Biosciences, San Jose, Calif.).
SMILES,IC50,EC50
"CC(C)Nc1cc(Nc2ccnc(NC3CCCOC3)n2)ncc1C(=O)NC[C@@H](F)C(C)(C)O (stereo partly drawn) [Example 25, N-((2R)-2-fluoro-3-hydroxy-3-methylbutyl)-4-(isopropylamino)-6-((2-(tetrahydro-2H-pyran-3-ylamino)-4-pyrimidinyl)amino)nicotinamide]",372 nM,–
"CC(C)Nc1cc(Nc2ccnc(N3CCC(F)C3)n2)ncc1C(=O)NC[C@@H](F)C(C)(C)O (stereo partly drawn) [Example 26, N-((2R)-2-fluoro-3-hydroxy-3-methylbutyl)-6-((2-(3-fluoro-1-pyrrolidinyl)-4-pyrimidinyl)amino)-4-(isopropylamino)nicotinamide]",139 nM,–
"CC(=O)N[C@H](C)CCNC(=O)c1cnc(Nc2ncc(C#N)cc2Cl)cc1NC(C)C [Example 28, (R)—N-(3-acetamidobutyl)-6-((3-chloro-5-cyanopyridin-2-yl)amino)-4-(isopropylamino)nicotinamide]",270 nM,–
"CC(C)NC(=O)N[C@H](C)CCNC(=O)c1cnc(Nc2ncc(C#N)cc2F)cc1NC(C)C [Example 29, (R)-6-((5-cyano-3-fluoropyridin-2-yl)amino)-4-(isopropylamino)-N-(3-(3-isopropylureido)butyl)nicotinamide]",111 nM,–
"CCNC(=O)[C@H]1CC[C@H](NC(=O)c2cnc(Nc3ncc(C#N)cc3F)cc2NC(C)C)CC1 [Example 30, 6-((5-cyano-3-fluoropyridin-2-yl)amino)-N-((1R,4R)-4-(ethylcarbamoyl)cyclohexyl)-4-(isopropylamino)nicotinamide]",–,163 nM
"CC(C)Nc1cc(Nc2ccc(C#N)cn2)ncc1C(=O)NC1CCC(O)(c2ccnn2C)CC1 (centres unmarked) [Example 31, 6-((5-cyanopyridin-2-yl)amino)-N-((1s,4s)-4-hydroxy-4-(1-methyl-1H-pyrazol-5-yl)cyclohexyl)-4-(isopropylamino)nicotinamide]",–,170 nM
"CS[C@H]1CC[C@H](NC(=O)c2cnc(Nc3ncc(C#N)cc3F)cc2NC(C)C)CC1 [Example 32, 6-((5-cyano-3-fluoropyridin-2-yl)amino)-4-(isopropylamino)-N-((1R,4R)-4-(methylthio)cyclohexyl)nicotinamide]",–,199 nM
"CC(C)Nc1cc(Nc2ncc(C#N)cc2F)ncc1C(=O)N[C@H]1CC[C@H](S(C)(=O)=O)CC1 [Example 33, 6-((5-cyano-3-fluoropyridin-2-yl)amino)-4-(isopropylamino)-N-((1R,4R)-4-(methylsulfonyl)cyclohexyl)nicotinamide]",–,149 nM
CC(=O)Nc1nc(Nc2cc(NC(C)C)c(C(=O)NC[C@@H](F)C(C)(C)O)cn2)ncc1C#N [Example 34],–,122 nM
"COC[C@H](F)CNC(=O)c1cnc(Nc2ncc(C#N)cc2F)cc1NC(C)C [Example 35, (R)-6-((5-cyano-3-fluoropyridin-2-yl)amino)-N-(2-fluoro-3-methoxypropyl)-4-(isopropylamino)nicotinamide]",–,350 nM
COC(C)(C)[C@H](F)CNC(=O)c1cnc(Nc2ncc(C#N)cc2F)cc1NC(C)C [Example 36],–,49 nM
[2H]C([2H])([2H])OC(C)(C)[C@H](F)CNC(=O)c1cnc(Nc2ncc(C#N)cc2F)cc1NC(C)C [Example 37],–,95 nM
CC(C)(O)[C@H](F)CNC(=O)c1cnc(Nc2ncc(C(N)=O)cc2Cl)cc1NC1CCC(F)C1 (some centres unmarked) [Example 38],–,453 nM
"C[C@@H](CF)Nc1cc(Nc2ncc(C#N)cc2Cl)ncc1C(=O)NC[C@@H](F)C(C)(C)O [Example 39, 6-((3-chloro-5-cyanopyridin-2-yl)amino)-N—((R)-2-fluoro-3-hydroxy-3-methylbutyl)-4-(((S)-1-fluoropropan-2-yl)amino)nicotinamide]",–,100 nM
CC(C)Nc1cc(Nc2ncc(C#N)c(NC(C)C)n2)ncc1C(=O)NC[C@@H](F)C(C)(C)O [Example 40],–,161 nM
CC(C)Nc1cc(Nc2nc(OC3CCNCC3)ncc2Cl)ncc1C(=O)NC[C@@H](F)C(C)(C)O [Example 41],–,160 nM
CC(C)(O)[C@H](F)CNC(=O)c1cnc(Nc2nc(OC3CCNCC3)ncc2Cl)cc1NC1CC1 [Example 42],–,329 nM
"CC(C)(O)C(F)(F)CNC(=O)c1cnc(Nc2ncc(C#N)cc2Cl)cc1NC1CC1 [Example 43, 6-((3-chloro-5-cyanopyridin-2-yl)amino)-4-(cyclopropylamino)-N-(2,2-difluoro-3-hydroxy-3-methylbutyl)nicotinamide]",–,169 nM
CC(C)Nc1cc(Nc2ccc(=O)[nH]n2)ncc1C(=O)NC[C@@H](F)C(C)(C)O [Example 45],712 nM,–
CC(C)(F)CNc1cc(Nc2ncc(C#N)cc2Cl)ncc1C(=O)NC[C@@H](F)C(C)(C)O [Example 46],–,206 nM
CC(C)(O)[C@H](F)CNC(=O)c1cnc(Nc2ncc(C#N)cc2F)cc1NC1CC1 [Example 47],69 nM,–

SMILES,IC50,EC50
CC(C)(O)CNc1cc(Nc2ncc(C#N)cc2Cl)ncc1C(=O)NC[C@@H](F)C(C)(C)O [Example 48],369 nM,–
CC(C)(O)[C@H](F)CNC(=O)c1cnc(Nc2ncc(C#N)cc2F)cc1NC1CCOCC1 [Example 49],164 nM,–
C[C@@H](CO)Nc1cc(Nc2ncc(C#N)cc2Cl)ncc1C(=O)NC[C@@H](F)C(C)(C)O [Example 50],85 nM,–
CCNc1cc(Nc2ncc(C#N)cc2Cl)ncc1C(=O)NC[C@@H](F)C(C)(C)O [Example 51],99 nM,–
CC(C)Nc1cc(Nc2ncncc2Cl)ncc1C(=O)NC[C@@H](F)C(C)(C)O [Example 52],74 nM,–
CC(C)Nc1cc(Nc2ncncc2F)ncc1C(=O)NC[C@@H](F)C(C)(C)O [Example 53],–,517 nM
CC(C)(O)[C@H](F)CNC(=O)c1cnc(Nc2ncc(C#N)cn2)cc1NC1CCC(F)C1 (some centres unmarked) [Example 56],41 nM,–
CCNc1cc(Nc2ncc(C#N)cn2)ncc1C(=O)NC[C@@H](F)C(C)(C)O [Example 58],191 nM,–
CNC(=O)[C@H]1CC[C@H](NC(=O)c2cnc(Nc3ncc(C#N)cc3F)cc2NC2CC2)CC1 [Example 59],60 nM,–
CNC(=O)[C@H]1CC[C@H](NC(=O)c2cnc(Nc3ncc(C#N)cc3Cl)cc2NC2CC2)CC1 [Example 60],52 nM,–
CNC(=O)[C@H]1CC[C@H](NC(=O)c2cnc(Nc3ncc(C#N)cc3F)cc2NC2CCOCC2)CC1 [Example 61],184 nM,–
Cc1nc(Nc2cc(NC(C)C)c(C(=O)NC[C@@H](F)C(C)(C)O)cn2)ccc1C#N [Example 63],–,92 nM
CC(=O)N[C@H](C)CCNC(=O)c1cnc(Nc2ncc(C#N)cc2F)cc1NC(C)C [Example 64],448 nM,–
CC(C)(O)[C@H](F)CNC(=O)c1cnc(Nc2ncc(C#N)cc2Cl)cc1NCC(F)(F)F [Example 65],–,156 nM
CCNc1cc(Nc2ncc(C#N)cc2F)ncc1C(=O)NC[C@@H](F)C(C)(C)O [Example 66],–,63 nM
CC(=O)N[C@H]1CC[C@H](NC(=O)c2cnc(Nc3ncc(C#N)cc3Cl)cc2NC2CC2)CC1 [Example 67],–,457 nM
CCn1ncc(Nc2cc(NC(C)C)c(C(=O)NC[C@@H](F)C(C)(C)O)cn2)n1 [Example 72],–,246 nM
CC(C)(O)c1cnc(Nc2cc(Nc3ncc(C#N)cc3Cl)ncc2C(=O)NC[C@@H](F)C(C)(C)O)s1 [Example 75],–,54 nM
CC(C)(O)[C@H](F)CNC(=O)c1cnc(Nc2ncc(C#N)cc2Cl)cc1NC1CCCC1O (some centres unmarked) [Example 76],–,107 nM
CC(=O)N[C@H]1CC[C@H](NC(=O)c2cnc(Nc3ncc(C#N)cc3Cl)cc2NC2CCOCC2)CC1 [Example 77],–,216 nM
